Assay results from the NIST ThermoML archive (doi:10.1016/j.jct.2015.06.004).
± gives the expanded uncertainty stated by the source.

Legend:
[1] = 298.15 K; 101.33 kPa; Liquid; Vibrating tube method
[2] = excess molar enthalpy (molar enthalpy of mixing); xn = mol fraction of the nth substance listed; conditions: 298.15 K, 100 kPa, Liquid, Power-compensation calorimetry

Cc1ccccc1 [toluene]
Conditions | mass density [kg/m3]
[1] | 862.22 ± 1

CCCCO [butan-1-ol]
Conditions | mass density [kg/m3]
[1] | 805.79 ± 1

CCCC[N+]1(C)CCCC1.N#C[B-](C#N)(C#N)C#N [1-butyl-1-methylpyrrolidinium tetracyanoborate] + CCCCO
[2]
Conditions | excess molar enthalpy [kcal/mol]
x1 = 0.0149 | 0.0582 ± 0.00382
x1 = 0.03 | 0.111 ± 0.00406
x1 = 0.0449 | 0.159 ± 0.00454
x1 = 0.0599 | 0.202 ± 0.00526
x1 = 0.0749 | 0.242 ± 0.00574
x1 = 0.0899 | 0.279 ± 0.00645
x1 = 0.1049 | 0.313 ± 0.00693
x1 = 0.1199 | 0.344 ± 0.00765
x1 = 0.1349 | 0.373 ± 0.00813
x1 = 0.1499 | 0.4 ± 0.0086
x1 = 0.1649 | 0.425 ± 0.00908
x1 = 0.1799 | 0.448 ± 0.0098
x1 = 0.1949 | 0.469 ± 0.01
x1 = 0.2099 | 0.489 ± 0.0105
x1 = 0.2248 | 0.507 ± 0.0108
x1 = 0.2399 | 0.524 ± 0.0112
x1 = 0.2549 | 0.539 ± 0.0115
x1 = 0.2698 | 0.553 ± 0.0117
x1 = 0.2849 | 0.565 ± 0.0122
x1 = 0.2999 | 0.576 ± 0.0122
x1 = 0.4828 | 0.591 ± 0.0127
x1 = 0.5199 | 0.579 ± 0.0124
x1 = 0.557 | 0.561 ± 0.012
x1 = 0.5941 | 0.537 ± 0.0115
x1 = 0.631 | 0.508 ± 0.0108
x1 = 0.6681 | 0.474 ± 0.0103
x1 = 0.7049 | 0.435 ± 0.00932
x1 = 0.7419 | 0.392 ± 0.00837
x1 = 0.7789 | 0.346 ± 0.00741
x1 = 0.8157 | 0.295 ± 0.00645
x1 = 0.8525 | 0.242 ± 0.0055
x1 = 0.8892 | 0.186 ± 0.0043
x1 = 0.9262 | 0.126 ± 0.00311
x1 = 0.9632 | 0.0638 ± 0.0022

CO [methanol]
Conditions | mass density [kg/m3]
[1] | 786.6 ± 1

CCCC[N+]1(C)CCCC1.N#C[B-](C#N)(C#N)C#N [1-butyl-1-methylpyrrolidinium tetracyanoborate]
Conditions | mass density [kg/m3]
[1] | 975.61 ± 1

CCCO [propan-1-ol]
Conditions | mass density [kg/m3]
[1] | 799.56 ± 1

CCCC[N+]1(C)CCCC1.N#C[B-](C#N)(C#N)C#N [1-butyl-1-methylpyrrolidinium tetracyanoborate] + CCO
[2]
Conditions | excess molar enthalpy [kcal/mol]
x1 = 0.0134 | 0.0375 ± 0.00287
x1 = 0.0268 | 0.0729 ± 0.00311
x1 = 0.0402 | 0.107 ± 0.00335
x1 = 0.0537 | 0.14 ± 0.00382
x1 = 0.0672 | 0.171 ± 0.0043
x1 = 0.0808 | 0.201 ± 0.00478
x1 = 0.0948 | 0.23 ± 0.00526
x1 = 0.1088 | 0.257 ± 0.00574
x1 = 0.1228 | 0.283 ± 0.00621
x1 = 0.1368 | 0.307 ± 0.00669
x1 = 0.1509 | 0.329 ± 0.00717
x1 = 0.1511 | 0.334 ± 0.00741
x1 = 0.165 | 0.35 ± 0.00765
x1 = 0.1652 | 0.355 ± 0.00765
x1 = 0.1792 | 0.369 ± 0.00813
x1 = 0.1902 | 0.389 ± 0.00837
x1 = 0.1933 | 0.387 ± 0.00837
x1 = 0.2067 | 0.403 ± 0.0086
x1 = 0.2202 | 0.424 ± 0.00908
x1 = 0.2403 | 0.444 ± 0.00956
x1 = 0.2803 | 0.477 ± 0.0103
x1 = 0.3203 | 0.501 ± 0.0108
x1 = 0.3604 | 0.517 ± 0.011
x1 = 0.4005 | 0.525 ± 0.0112
x1 = 0.4406 | 0.527 ± 0.0112
x1 = 0.4806 | 0.521 ± 0.011
x1 = 0.5206 | 0.51 ± 0.0108
x1 = 0.5607 | 0.492 ± 0.0105
x1 = 0.6007 | 0.47 ± 0.01
x1 = 0.6408 | 0.441 ± 0.00956
x1 = 0.6807 | 0.408 ± 0.00884
x1 = 0.7203 | 0.371 ± 0.00789
x1 = 0.7604 | 0.328 ± 0.00717
x1 = 0.8002 | 0.282 ± 0.00621
x1 = 0.8402 | 0.232 ± 0.00526
x1 = 0.8802 | 0.178 ± 0.00406
x1 = 0.9201 | 0.121 ± 0.00311
x1 = 0.96 | 0.0612 ± 0.00203

c1ccsc1 [thiophene]
Conditions | mass density [kg/m3]
[1] | 1058.46 ± 1

CCCC[N+]1(C)CCCC1.N#C[B-](C#N)(C#N)C#N [1-butyl-1-methylpyrrolidinium tetracyanoborate] + Cc1ccccc1
[2]
Conditions | excess molar enthalpy [kcal/mol]
x1 = 0.0179 | -0.0242 ± 0.00141
x1 = 0.0359 | -0.0474 ± 0.00167
x1 = 0.0539 | -0.0702 ± 0.00201
x1 = 0.0719 | -0.093 ± 0.00239
x1 = 0.0898 | -0.116 ± 0.00287
x1 = 0.1079 | -0.138 ± 0.00335
x1 = 0.1259 | -0.161 ± 0.00359
x1 = 0.1439 | -0.184 ± 0.00406
x1 = 0.1619 | -0.206 ± 0.00454
x1 = 0.1799 | -0.228 ± 0.00502
x1 = 0.1979 | -0.249 ± 0.0055
x1 = 0.2159 | -0.271 ± 0.00598
x1 = 0.2339 | -0.291 ± 0.00621
x1 = 0.2519 | -0.304 ± 0.00645
x1 = 0.2698 | -0.313 ± 0.00669
x1 = 0.2878 | -0.319 ± 0.00693
x1 = 0.2933 | -0.315 ± 0.00669
x1 = 0.3059 | -0.322 ± 0.00693
x1 = 0.3203 | -0.319 ± 0.00693
x1 = 0.3239 | -0.323 ± 0.00693
x1 = 0.3369 | -0.321 ± 0.00693
x1 = 0.3603 | -0.312 ± 0.00669
x1 = 0.4004 | -0.301 ± 0.00645
x1 = 0.4405 | -0.285 ± 0.00621
x1 = 0.4805 | -0.267 ± 0.00574
x1 = 0.5206 | -0.247 ± 0.00526
x1 = 0.5606 | -0.226 ± 0.00478
x1 = 0.6006 | -0.206 ± 0.00454
x1 = 0.6407 | -0.184 ± 0.00406
x1 = 0.6807 | -0.163 ± 0.00359
x1 = 0.7207 | -0.141 ± 0.00311
x1 = 0.7606 | -0.12 ± 0.00263
x1 = 0.8006 | -0.0991 ± 0.00222
x1 = 0.8405 | -0.0784 ± 0.00179
x1 = 0.8803 | -0.058 ± 0.00139
x1 = 0.9202 | -0.0379 ± 0.001
x1 = 0.9601 | -0.0183 ± 0.000693
